Assay [1] addresses human GABAA α1β2γ1 receptor (Homo sapiens (Human), UniProt P14867+Q8N1C3). The assay is described as follows: Radioligand binding assay, competition for [3H]RO7239181, γ1-containing GABAA subtypes.
The target of assay [2] is human GABAA α2β2γ1 receptor (Homo sapiens (Human), UniProt P47869+Q8N1C3). Described as above.
Assay [3] addresses human GABAA α1β3γ2 receptor (Homo sapiens (Human), UniProt P14867+P18507). The assay is described as follows: Radioligand binding assay, competition for [3H]Flumazenil, γ2-containing GABAA subtypes. The following applies: for γ2/γ1 Selectivity Ratio: Ki α1β3γ2 (nM)/Ki α2β2γ1 (nM); for LogSel: Log[Ki α1β3γ2 (nM)/Ki α2β2γ1 (nM)]. In outline:
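Competition against [3H]Flumazenil binding in HEK293F cells transiently expressing human α1β3γ2 receptors, pellets resuspended in mannitol buffer pH 7,2-7,4. Incubated to equilibrium 1 hour at 4° C, filtered and washed with ice-cold 50 mM Tris pH 7.5, bound radioactivity by liquid scintillation counting. Ki values are means of two determinations.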

The mark [4] stands for this setting: Ki h-GABAA α1β2γ1, Table 3, reference compounds and examples.
Setting [5] is: Ki h-GABAA α1β2γ1, membranes of HEK293F cells, [3H]RO7239181 20-30 nM, Table 1.
[6] abbreviates: Ki h-GABAA α2β2γ1, Table 3, reference compounds and examples.
The mark [7] stands for this setting: Ki h-GABAA α2β2γ1, membranes of HEK293F cells, [3H]RO7239181 20-30 nM, Table 1.
[8] abbreviates: Ki h-GABAA α2β2γ1, membranes of HEK293F cells, [3H]RO7239181 20-30 nM, Table 2.
[9] abbreviates: HEK293F cells, [3H]Flumazenil 1 nM, Table 1, read-out: Ki h-GABAA α1β3γ2.
Where [10] appears, read: membranes of HEK293F cells, [3H]RO7239181 20-30 nM, Table 1, read-out: Ki h-GABAA α1β2γ1.
Where [11] appears, read: read-out: Ki h-GABAA α1β3γ2, Table 3, reference compounds and examples.

Where two headings read alike, the source gives them in different places.

Usually Ki stands for a measure of affinity in units of concentration, obtained from inhibition or displacement.

Turning to `Cc1nnc2n1-c1sc3c(c1C(c1c(F)cccc1F)=N[C@H]2C)COCCC3` [Example 52, (7S)-9-(2,6-difluorophenyl)-3,7-dimethyl-13-oxa-18-thia-2,4,5,8-tetrazatetracyclo[8.8.0.02,6.011,17]octadeca-1(10),3,5,8,11(17)-pentaene], the inhibitory constant (Ki) in assay [1] (setting [4]) is 75.3 nM; in assay [1] (setting [5]) it was 75.3 nM; in assay [2] (setting [6]) it was 27.7 nM; in assay [2] (setting [7]), 27.7 nM; in assay [2] (setting [8]), 27.7 nM; in assay [3] it was 2780 nM. The “γ2/γ1 Selectivity Ratio” value in assay [3] (Table 1) and in assay [3] (Table 3) was 100.3 in each case. The LogSel in assay [3] (Table 1) came out at 2.00; in assay [3] (Table 3), 2.0.

In the case of `Cc1nnc2n1-c1sc3c(c1C(c1c(F)cccc1F)=N[C@H]2C)CCCC(F)(F)C3` [Example 8, (7S)-9-(2,6-difluorophenyl)-15,15-difluoro-3,7-dimethyl-18-thia-2,4,5,8-tetrazatetracyclo[8.8.0.02,6.011,17]octadeca-1(10),3,5,8,11(17)-pentaene], the Ki in assay [1] (setting [5]) was 312 nM; in assay [2] (setting [7]) it was 51.3 nM; in assay [2] (setting [8]), 51.3 nM; in assay [3], 2760 nM. Further, the “γ2/γ1 Selectivity Ratio” value in assay [3] (Table 1) stood at 53.8. The compound also registered a LogSel in assay [3] (Table 1) of 1.73.

Take `Cc1nnc2n1-c1sc3c(c1C(c1c(F)cccc1F)=NC2)CCCCO3` [Example 18, 9-(2,6-difluorophenyl)-3-methyl-16-oxa-18-thia-2,4,5,8-tetrazatetracyclo[8.8.0.02,6.011,17]octadeca-1(10),3,5,8,11(17)-pentaene]: the Ki in assay [1] (setting [5]) came to 55.1 nM; in assay [2] (setting [7]) it was 20.9 nM; in assay [2] (setting [8]), 20.9 nM; in assay [3], 428 nM. For the same compound, in assay [3] (Table 1), the “γ2/γ1 Selectivity Ratio” value is listed as 20.5. Further, the LogSel in assay [3] (Table 1) is reported as 1.31.

Turning to `Cc1nnc2n1-c1sc3c(c1C(c1c(F)cccc1F)=N[C@H]2C)COC[C@H](C)O3` [Example 30, (7S,15S)-9-(2,6-difluorophenyl)-3,7,15-trimethyl-13,16-dioxa-18-thia-2,4,5,8-tetrazatetracyclo[8.8.0.02,6.011,17]octadeca-1(10),3,5,8,11(17)-pentaene], the Ki in assay [1] (setting [5]) was determined as 205 nM; in assay [2] (setting [7]), 36.9 nM; in assay [2] (setting [8]), 36.9 nM; in assay [3], 1830 nM. For the same compound, the “γ2/γ1 Selectivity Ratio” value in assay [3] (Table 1) is 49.6. In assay [3] (Table 1), this compound yielded a LogSel of 1.70.

`C[C@@H]1N=C(c2c(F)cccc2F)c2c(sc3c2COCCO3)-n2nc(C(=O)N3CC(F)C3)nc21` [Example 24, (3-fluoroazetidin-1-yl)-[(7S)-9-(2,6-difluorophenyl)-7-methyl-13,16-dioxa-18-thia-2,3,5,8-tetrazatetracyclo[8.8.0.02,6.011,17]octadeca-1(10),3,5,8,11(17)-pentaen-4-yl]methanone]: the Ki in assay [1] (setting [5]) is 24.7 nM; in assay [2] (setting [7]), 3.75 nM; in assay [2] (setting [8]), 3.8 nM; in assay [3] (setting [9]) it was 2600 nM. For the same compound, the “γ2/γ1 Selectivity Ratio” value in assay [3] (Table 1) turned out to be 691.7. The compound also yielded a LogSel in assay [3] (Table 1) of 2.84.

As for `Cc1nnc2n1-c1sc3c(c1C(c1c(F)cccc1Cl)=N[C@H]2C)COCCO3` [Example 35, (7S)-9-(2-chloro-6-fluoro-phenyl)-3,7-dimethyl-13,16-dioxa-18-thia-2,4,5,8-tetrazatetracyclo[8.8.0.02,6.011,17]octadeca-1(10),3,5,8,11(17)-pentaene], the Ki was found to be 47.2 nM in assay [1] (setting [5]), 18.8 nM in assay [2] (setting [7]), 18.8 nM in assay [2] (setting [8]) and 3940 nM in assay [3]. Further, the “γ2/γ1 Selectivity Ratio” value in assay [3] (Table 1) is listed as 209.5. For the same compound, in assay [3] (Table 1), the LogSel was 2.32.

For `C[C@@H]1N=C(c2c(F)cccc2F)c2c(sc3c2COCCO3)-n2nc(C(=O)NCC(C)(C)O)nc21` [Example 45, (7S)-9-(2,6-difluorophenyl)-N-(2-hydroxy-2-methyl-propyl)-7-methyl-13,16-dioxa-18-thia-2,3,5,8-tetrazatetracyclo[8.8.0.02,6.011,17]octadeca-1(10),3,5,8,11(17)-pentaene-4-carboxamide], the Ki in assay [1] (setting [10]) came to 103 nM; in assay [2] (setting [7]) it was 13.6 nM; in assay [2] (setting [8]), 13.6 nM; in assay [3] (setting [9]), 3150 nM. Moreover, the “γ2/γ1 Selectivity Ratio” value in assay [3] (Table 1) amounted to 232.1. The LogSel in assay [3] (Table 1) is 2.37.

On to `Cc1nnc2n1-c1sc3c(c1C(c1c(F)cccc1F)=N[C@H]2C)COCCO3` [Example 21, (7S)-9-(2,6-difluorophenyl)-3,7-dimethyl-13,16-dioxa-18-thia-2,4,5,8-tetrazatetracyclo[8.8.0.02,6.011,17]octadeca-1(10),3,5,8,11(17)-pentaene], for which the Ki in assay [1] (setting [4]) amounted to 52.6 nM; in assay [1] (setting [5]), 52.6 nM; in assay [2] (setting [6]), 20.2 nM; in assay [2] (setting [7]), 20.2 nM; in assay [2] (setting [8]), 20.2 nM; in assay [3], 1360 nM. In assay [3] (setting [11]), the Ki was found to be 1360 nM. In addition, the “γ2/γ1 Selectivity Ratio” value in assay [3] (Table 1) and in assay [3] (Table 3) was 67.2 in each case. In addition, the values for the LogSel in assay [3] (Table 1) and in assay [3] (Table 3) were 1.83 and 1.8, respectively.

As to `Cc1nnc2n1-c1sc3c(c1C(c1c(F)cccc1F)=N[C@H]2C)CC[C@H](F)CC3` (single isomer, unassigned) [Example 14], the Ki in assay [1] (setting [5]) was found to be 118 nM; in assay [2] (setting [7]), 38.4 nM; in assay [2] (setting [8]) it was 38.4 nM; in assay [3], 11000 nM. For the same compound, the “γ2/γ1 Selectivity Ratio” value in assay [3] (Table 1) is 286.6. Further, the LogSel in assay [3] (Table 1) turned out to be 2.46.

As to `Cc1nnc2n1-c1sc3c(c1C(c1c(F)cccc1F)=N[C@H]2C)CCC(F)C(F)C3` (single isomer, unassigned) [Example 34], the Ki in assay [1] (setting [5]) came to 103 nM; in assay [2] (setting [7]), 31.7 nM; in assay [2] (setting [8]), 31.7 nM; in assay [3], 10800 nM. Besides, the “γ2/γ1 Selectivity Ratio” value in assay [3] (Table 1) amounted to 340.3. In assay [3] (Table 1), this compound returned a LogSel of 2.53.

Regarding `C[C@@H]1N=C(c2c(F)cccc2F)c2c(sc3c2COC[C@H](C)O3)-n2nc(C(=O)N3CC(F)C3)nc21` [Example 40, [(7S,15S)-9-(2,6-difluorophenyl)-7,15-dimethyl-13,16-dioxa-18-thia-2,3,5,8-tetrazatetracyclo[8.8.0.02,6.011,17]octadeca-1(10),3,5,8,11(17)-pentaen-4-yl]-(3-fluoroazetidin-1-yl)methanone], the Ki in assay [1] (setting [10]) amounted to 286 nM; in assay [2] (setting [7]), 20.5 nM; in assay [2] (setting [8]), 20.5 nM; in assay [3] (setting [9]) it was 11600 nM. Further, the “γ2/γ1 Selectivity Ratio” value in assay [3] (Table 1) is 568.5. Also, in assay [3] (Table 1), the LogSel is reported as 2.75.

Consider `Cc1nnc2n1-c1sc3c(c1C(c1c(F)cccc1F)=NC2)CCCCC3` [Example 1, 9-(2,6-difluorophenyl)-3-methyl-18-thia-2,4,5,8-tetrazatetracyclo[8.8.0.02,6.011,17]octadeca-1(10),3,5,8,11(17)-pentaene], for which the Ki in assay [1] (setting [4]) is 19.7 nM; in assay [1] (setting [5]) it was 20 nM; in assay [2] (setting [6]), 7.5 nM; in assay [2] (setting [7]) it was 7.5 nM; in assay [2] (setting [8]), 7.5 nM; in assay [3], 374 nM. For the same compound, the Ki in assay [3] (setting [11]) was 374 nM. Besides, the “γ2/γ1 Selectivity Ratio” value in assay [3] (Table 1) and in assay [3] (Table 3) was 49.6 throughout. Besides, the LogSel in assay [3] (Table 1) is listed as 1.70; in assay [3] (Table 3), 1.7.

For the compound `Cc1nnc2n1-c1sc3c(c1C(c1c(F)cccc1F)=N[C@H]2C)CCCCC3` [Example 2, (7S)-9-(2,6-difluorophenyl)-3,7-dimethyl-18-thia-2,4,5,8-tetrazatetracyclo[8.8.0.02,6.011,17]octadeca-1(10),3,5,8,11(17)-pentaene], the Ki in assay [1] (setting [5]) turned out to be 19.2 nM; in assay [2] (setting [7]), 7.4 nM; in assay [2] (setting [8]) it was 7.4 nM; in assay [3], 994 nM. In addition, the “γ2/γ1 Selectivity Ratio” value in assay [3] (Table 1) came to 133.9. In assay [3] (Table 1), this compound came in with a LogSel of 2.13.

With `Cc1nnc2n1-c1sc3c(c1C(c1c(F)cccc1F)=N[C@H]2C)OCCCC3` [Example 33, (7S)-9-(2,6-difluorophenyl)-3,7-dimethyl-12-oxa-18-thia-2,4,5,8-tetrazatetracyclo[8.8.0.02,6.011,17]octadeca-1(10),3,5,8,11(17)-pentaene], the Ki was determined as 380 nM in assay [1] (setting [5]), 55.9 nM in assay [2] (setting [7]), 55.9 nM in assay [2] (setting [8]) and 3720 nM in assay [3]. Also, the “γ2/γ1 Selectivity Ratio” value in assay [3] (Table 1) came to 66.5. The compound further registered a LogSel in assay [3] (Table 1) of 1.82.

Take `Cc1nnc2n1-c1sc3c(c1C(c1c(F)cccc1F)=N[C@H]2C)CC[C@@H](F)CC3` (single isomer, unassigned) [Example 15]: the inhibitory constant (Ki) in assay [1] (setting [5]) was 131 nM; in assay [2] (setting [7]), 42.8 nM; in assay [2] (setting [8]), 42.8 nM; in assay [3] it was 3530 nM. Besides, the “γ2/γ1 Selectivity Ratio” value in assay [3] (Table 1) stood at 82.5. The compound further gave a LogSel in assay [3] (Table 1) of 1.92.

The record behind these values is US20240294543A1, “CYCLOHEPTA-THIENO-DIAZEPINE DERIVATIVES AS GABA A GAMMA1 PAM” (Hoffmann-La Roche Inc., priority 2021, published 2024).
